This note sets out measurements from publication PMC6522510 (Nature Communications, 2019).

Test systems include MOLM-13; MV4-11; CMK; CHRF288-11; U937; CMS; ML-2; M07e.
Set-up in all cases: species or system AML cell lines (8); Primary HTS, single concentration about 10 uM, Cell Titer Glo viability; log10 luminescence, per cent inhibition relative to cycloheximide control
Details in all cases: 72 h, relative to cycloheximide control, log10 luminescence, inhibitor

Like-named read-outs stand apart in the source and are kept apart here.

As to `Cc1ccc(C)c(OCCCC(C)(C)C(=O)O)c1` [SJ000285775-4, GEMFIBROZIL], the MOLM-13 %inh in the experiment on MOLM-13 (MOLM-13 %inh, 10 µM) is 2.26%. The MV4-11 %inh with MV4-11 (MV4-11 %inh, 10 µM) was found to be 1.327%. Besides, in the experiment on CMK (CMK %inh, 10 µM), the CMK %inh came out at 2.032%. Besides, the CHRF288-11 %inh in the experiment with CHRF288-11 (CHRF288-11 %inh, 10 µM) is reported as -1.527%. Moreover, the U937 %inh in the experiment on U937 (U937 %inh, 10 µM) was -0.006863%. Also, the CMS %inh in the experiment on CMS (CMS %inh, 10 µM) is recorded as 6.72%. The ML-2 %inh in the experiment with ML-2 (ML-2 %inh, 10 µM) is listed as -0.7985%. In the experiment on M07e (M07e %inh, 10 µM), the M07e %inh was 3.732%.

For the molecule `COc1ccc(C(Cl)=C(c2ccc(OC)cc2)c2ccc(OC)cc2)cc1` [SJ000285822-4, CHLOROTRIANISENE], the MOLM-13 %inh in the experiment on MOLM-13 is reported as 5.231%. For the same molecule, in the experiment on MV4-11, the MV4-11 %inh came to 5.688%. In addition, the CMK %inh in the experiment on CMK came to 7.136%. The CHRF288-11 %inh in the experiment with CHRF288-11 is reported as -2.199%. For the same molecule, the U937 %inh in the experiment on U937 was 7.913%. Besides, the CMS %inh in the experiment on CMS was 1.562%. The ML-2 %inh in the experiment with ML-2 stood at 4.119%. In addition, the M07e %inh in the experiment with M07e was determined as 9.609%.

Regarding `COc1ccccc1Nc1ncc(-c2ccccc2)o1` [SJ000573117-1, U14961/90/1], the MOLM-13 %inh in the experiment on MOLM-13 came to 90.67%. For the same molecule, the MV4-11 %inh in the experiment on MV4-11 was found to be 83.21%. Also, the CMK %inh in the experiment on CMK was -0.2443%. Moreover, the CHRF288-11 %inh with CHRF288-11 amounted to 5.085%. The U937 %inh in the experiment with U937 is recorded as -2.759%. In the experiment on CMS, the CMS %inh is on record as -1.143%. For the same molecule, in the experiment on ML-2, the ML-2 %inh is given as 0.6262%. In addition, the M07e %inh with M07e was 4.937%.

`CCN1CCC(CC(=O)Nc2n[nH]c3nnc(-c4cccc(F)c4F)cc23)CC1` [SJ000573064-1, VB101259-076A3] showed an MOLM-13 %inh in the experiment with MOLM-13 of 13.03%. Also, the MV4-11 %inh in the experiment with MV4-11 was determined as 39.53%. Further, in the experiment on CMK, the CMK %inh turned out to be 96.65%. The CHRF288-11 %inh in the experiment on CHRF288-11 is reported as 30.8%. Further, the U937 %inh in the experiment with U937 was 13.36%. Also, the CMS %inh in the experiment with CMS is 104.4%. For the same molecule, the ML-2 %inh in the experiment on ML-2 stood at 6.747%. In addition, the M07e %inh with M07e is reported as 13.75%.

`Cc1ccc(C(=O)NC2CCCCC2)cc1-c1ccc(C(=O)NCC2CC2)cc1` [SJ000573346-1, R5311/184/6] showed an MOLM-13 %inh with MOLM-13 of 6.287%. The MV4-11 %inh with MV4-11 was 6.399%. In the experiment on CMK, the CMK %inh stood at 5.045%. The CHRF288-11 %inh in the experiment on CHRF288-11 was 2.896%. Besides, the U937 %inh with U937 is 4.929%. Also, in the experiment with CMS, the CMS %inh is reported as -0.3831%. In addition, in the experiment on ML-2, the ML-2 %inh is listed as -1.695%. Besides, the M07e %inh in the experiment with M07e is recorded as -0.328%.

In the case of `COc1cccc(/C=N/Nc2ncnc3c2cnn3-c2cccc(OC)c2)c1` [SJ000573114-1, U19125/70/2], in the experiment with MOLM-13, the MOLM-13 %inh worked out at 0.5296%. The MV4-11 %inh in the experiment with MV4-11 is -0.9072%. The CMK %inh with CMK was 1.014%. Also, the CHRF288-11 %inh in the experiment on CHRF288-11 is listed as -4.16%. In the experiment on U937, the U937 %inh is on record as -1.619%. For the same molecule, in the experiment on CMS, the CMS %inh is on record as 0.5792%. Further, in the experiment with ML-2, the ML-2 %inh is given as -2.362%. For the same molecule, in the experiment with M07e, the M07e %inh was -0.7733%.

For `COc1cc2c(cc1O)CC[C@@H]1[C@@H]2CC[C@]2(C)[C@@H](O)CC[C@@H]12` [SJ000288002-4, 2-METHOXYESTRADIOL | 2-METHOXYESTRADIOL | PANZEM | PULMOLAR | 2-ME | 2-MEOE2 | 2ME2 | NSC-659853 | | 2-METHOXYESTRADIOL | 2-ME | 2-MEOE2 | 2ME2 | NSC-659853 | | 2-METHOXYESTRADIOL (2-MEOE2)], the MOLM-13 %inh in the experiment on MOLM-13 (MOLM-13 %inh, 10 µM) came to 91.74%. Also, the MV4-11 %inh in the experiment with MV4-11 (MV4-11 %inh, 10 µM) is on record as 99.75%. Also, in the experiment with CMK (CMK %inh, 10 µM), the CMK %inh is on record as 133.7%. Besides, the CHRF288-11 %inh in the experiment on CHRF288-11 (CHRF288-11 %inh, 10 µM) is 60.77%. Further, the U937 %inh in the experiment with U937 (U937 %inh, 10 µM) is given as 95.83%. In the experiment with CMS (CMS %inh, 10 µM), the CMS %inh was 122.6%. The ML-2 %inh in the experiment with ML-2 (ML-2 %inh, 10 µM) is 66.58%. The M07e %inh in the experiment with M07e (M07e %inh, 10 µM) is given as 111%.

In the experiment on MOLM-13, `c1ccc(Nc2ncc(-c3ccccc3)o2)cc1` [SJ000573072-1, U13103/99/1] registered an MOLM-13 %inh of 84.62%. Moreover, the MV4-11 %inh in the experiment on MV4-11 is 59.12%. In addition, the CMK %inh with CMK is listed as 6.254%. Further, the CHRF288-11 %inh in the experiment with CHRF288-11 is 2.769%. For the same molecule, the U937 %inh with U937 came out at 3.569%. Moreover, the CMS %inh in the experiment with CMS is listed as -0.2616%. In addition, the ML-2 %inh in the experiment with ML-2 is 3.842%. For the same molecule, the M07e %inh in the experiment on M07e was -2.471%.
